Experimental data published in publication PMC11768359, “2-Aminothiophene Derivatives—New Drug Candidates Against Leishmaniasis: Drug Design, Synthesis, Pharmacomodulation, and Antileishmanial Activity” (Pharmaceuticals, 2025).
Several values for one entry are separate records, joined by “and”; a condition that tells them apart may be missing. Identical values can stand only once. Like-named read-outs stand apart in the source and are kept apart here.

Columns and labels:
[1] = test system: promastigotes of L. amazonensis; assay: Growth inhibition of promastigote forms of L. amazonensis (MTT); assay type: cell-based, Leishmania amazonensis; details: 72 h, 26 °C
Description: (§1) The in vitro tests utilized Leishmania amazonensis parasites (IFLA/BR/67/PH8). These leishmania cell lines were obtained from Oswaldo Cruz Foundation (FIOCRUZ)/Brazil. The promastigote forms were cultivated in Schneider’s insect medium at 26 °C in a biological oxygen demand (BOD) incubator. Schneider’s insect medium was supplemented with 20% fetal bovine serum (FBS) and 1% penicillin (100 U/mL) and streptomycin (µg/mL) (complete Schneider). Next, we differentiated them from promastigote forms by changing the conditions to Schneider’s insect medium supplemented with 5% FBS, pH 4.6, and a temperature of 32 °C to obtain axenic amastigote forms of L. amazonensis. Meanwhile, RAW 264.7 macrophages were cultured in […] cell culture flasks using DMEM medium supplemented with 10% FBS, 1% penicillin 100 U/mL, and 100 μg/mL streptomycin (complete DMEM) and incubated at 37 °C and 5% CO2.
(§2) Parasite growth inhibition was evaluated using the methodology described by Rodrigues et al. (2015). Cultures of logarithmically growing promastigote and axenic amastigote forms (1 × 10^6 parasites/mL) were incubated in 96-well plates containing 100 µL of supplemented Schneider’s medium in triplicate. Serial concentrations of 2-amino-thiophene and 2-amino-selenophene derivatives (10.00–0.156 μM) and the reference drugs meglumine antimoniate (500–40,000 μg/mL), amphoterecinB (0.1–2 μM), and pentamidine (3.12–100 µM) were added. BNP was used as a negative control. The cultures were incubated in a biological oxygen demand oven (model Eletrolab EL202, São Paulo, Brazil) at 26 °C for promastigotes and 32 °C for axenic amastigotes for 72 h. Then, 10 μL of MTT (5 mg/mL) was added to each well to colorimetrically evaluate growth inhibition. The plate was subsequently incubated for a further 4 h, followed by adding 50 μL of 10% sodium dodecyl sulfate solution for […] before the optical density of the culture was read on a microplate spectrophotometer reader. The reading was taken at the test and reference wavelengths of 540 and 620 nm using a microplate spectrophotometer. The negative control consisted of 0.2% […] with BNP, considered to be 100% viable.

[2] = test system: axenic amastigotes of L. amazonensis; assay: Growth inhibition of axenic amastigote forms of L. amazonensis (MTT); assay type: cell-based, Leishmania amazonensis; details: Leishmania amazonensis, 72 h, 32 °C
Description: as §1, §2

[3] = test system: promastigotes of L. amazonensis; details: cited from earlier work
[4] = test system: axenic amastigotes of L. amazonensis; details: cited from earlier work; for EC50: read-out: EC50 against amastigotes
[5] = Cytotoxicity in macrophages (MTT); assay type: cell-based; details: mouse, RAW 264.7 macrophages
Description: as §1
First, 100 μL DMEM medium complete with 1 × 10^6 macrophages (RAW 264.7) was added to each well of a 96-well plate. RAW 264.7 macrophages were obtain from ATCC: code TIB-71^TM. The plate was placed in an incubator (37 °C, 5% CO2) (Sanyo, model COM-15A, Sanyo Electric Co., Osaka, Japan) for 4 h to promote cell adhesion. After this period, two washes were conducted with previously heated DMEM medium (37 °C) to remove non-adhered cells. 2-amino-thiophene and 2-amino-selenophene derivatives were added to wells at serial concentrations of 400 to 25 µM and then incubated for 48 h. Next, 10 μL of MTT at a […] of 5 mg/mL were added to each well and incubated for 4 h. The plate was then shaken for 30 min and read at the test and reference wavelengths of 550 and 620 nm, respectively, in a plate reader. DMEM medium supplemented with 0.5% DMSO was used as a negative control and considered as 100% macrophage viability. The selectivity index for each treatment was calculated as the ratio between the concentration of cytotoxicity of RAW 264.7 macrophages (CC50) and the 50% inhibitory concentration (IC50) or effective concentration (EC50), as measured for the different evolutionary forms of L. amazonensis.

[6] = test system: RAW 264.7 macrophages; details: previously published; cited from earlier work
[7] = L. amazonensis promastigotes, previously published, read-out: IC50 Promastigotes
[8] = L. amazonensis axenic amastigotes, previously published, read-out: IC50 Amastigotes
[9] = L. amazonensis amastigotes, previously published, read-out: IC50 Amastigotes
[10] = L. amazonensis, read-out: IC50 against promastigotes
[11] = L. amazonensis, read-out: IC50 against axenic amastigotes

CC1CCc2c(sc(N)c2C#N)C1 (centres unmarked) [Compound 13]
IC50 ([1]; Leishmania amazonensis): > 10 µM
IC50 [2]: > 10 µM

N#Cc1c(/N=C/c2c[nH]c3ccc(Br)cc23)sc2c1CCC2 [Compound 25]
IC50 Promastigotes ([3]; L. amazonensis promastigotes, previously published): inactive against the two evolutionary forms
IC50 [3, 7]: > 10 µM
IC50 Amastigotes ([4]; L. amazonensis axenic amastigotes, previously published): inactive against the two evolutionary forms
IC50 [4, 8]: > 10 µM

N#Cc1c(/N=C/c2c[nH]c3ccccc23)[se]c2c1CCCC2 [Compound 32]
IC50 Promastigotes [1]: not active up to the highest concentration evaluated
IC50 ([1]; Leishmania amazonensis): > 10 µM

N#Cc1c(/N=C/c2c[nH]c3ccccc23)sc2c1CCCCC2 [SB-44, reference compound]
IC50 [3, 7]: 7.3 µM and 7.37 µM
IC50 [4, 9]: 15.8 µM
EC50 ([4]; L. amazonensis amastigotes): 15.8 µM

CCOC(=O)c1c(N)sc2c1CCCC2 [Compound 10]
IC50 ([1]; Leishmania amazonensis): > 10 µM

NC(=O)c1c(N)sc2c1CCCC2 [Compound 7]
IC50 [1]: > 10 µM
IC50 ([1]; Leishmania amazonensis): ≥ 10 µM
IC50 [2]: > 10 µM

CCOC(=O)c1c(N)sc2c1CCCCC2 [Compound 11]
IC50 ([1]; Leishmania amazonensis): > 10 µM

N#Cc1c(/N=C/c2c[nH]c3cccc(Br)c23)[se]c2c1CCCC2 [Compound 37]
IC50 ([1]; Leishmania amazonensis): 4.5 µM
CC50 at 48 h [5]: 242 µM

N#Cc1c(N)sc2c1CCCCCC2 [Compound 8CN]
IC50 [3, 7]: 1.2 µM
CC50 [6]: 43.9 µM

N#Cc1c(/N=C/c2c[nH]c3ccc(Br)cc23)sc2c1CCCCC2 [SB-200]
IC50 [3, 7]: 3.6 µM and 3.65 µM
IC50 [4, 9]: 20 µM and 20.1 µM
EC50 ([4]; L. amazonensis amastigotes): 20.1 µM
CC50 [6]: 32 µM

CCOC(=O)c1c(N)sc2c1CCN(C(=O)OC(C)(C)C)C2 [Compound 21]
IC50 ([1]; Leishmania amazonensis): 3.1 µM
IC50 [2]: 2.9 µM
CC50 at 48 h [5]: 221 µM

N#Cc1c(/N=C/c2c[nH]c3cccc([N+](=O)[O-])c23)[se]c2c1CCCC2 [Compound 34]
IC50 [1]: 2.14 µM
IC50 ([1]; Leishmania amazonensis): < 3.5 µM
CC50 at 48 h [5]: 189 µM

N#Cc1c(/N=C/c2c[nH]c3cccc(Br)c23)sc2c1CCCCCC2 [Compound 42, reference compound]
IC50 [3, 10]: 2.9 µM and 2.97 µM
IC50 [4, 11]: 1.7 µM and 1.71 µM

CC(C)(C)OC(=O)N1CCc2c(sc(N)c2C(N)=O)C1 [Compound 19]
IC50 ([1]; Leishmania amazonensis): 9.35 µM
IC50 [2]: > 10 µM
CC50 at 48 h [5]: 310 µM
IC50 [3, 10]: 2.1 µM and 2.16 µM
IC50 [4, 11]: 0.9 µM

CCOC(=O)c1c(N)sc2c1CCC2 [Compound 9]
IC50 ([1]; Leishmania amazonensis): > 10 µM

Cc1cccc2c(/C=N/c3[se]c4c(c3C#N)CCCC4)c[nH]c12 [Compound 36]
IC50 [1]: 2.92 µM
IC50 ([1]; Leishmania amazonensis): < 3.5 µM
CC50 at 48 h [5]: 186 µM

N#Cc1c(/N=C/c2c[nH]c3ccc(Br)cc23)sc2c1CCNC2 [Compound 30]
IC50 [3, 7]: > 10 µM
IC50 [4, 8]: > 10 µM

CCOC(=O)c1c(N)sc2c1CCC(C)C2 (centres unmarked) [Compound 20]
IC50 [1]: > 10 µM
IC50 ([1]; Leishmania amazonensis): ≥ 10 µM

CC1CCc2c(sc(/N=C/c3c[nH]c4ccc(Br)cc34)c2C#N)C1 (centres unmarked) [Me-6CN83]
IC50 [3, 7]: 9.9 µM
IC50 [4, 8]: 8.7 µM and 8.72 µM
CC50 [6]: > 100 µM

N=C(N)c1ccc(OCCCCCOc2ccc(C(=N)N)cc2)cc1 [Pentamidine, reference compound]
IC50 ([1]; Leishmania amazonensis): 42.3 µM
CC50 at 48 h [5]: 294 µM

CCOC(=O)c1ccsc1N [Compound 3]
IC50 [1]: > 10 µM
IC50 ([1]; Leishmania amazonensis): ≥ 10 µM
IC50 [2]: > 10 µM

COc1ccc2[nH]cc(/C=N/c3[se]c4c(c3C#N)CCCC4)c2c1 [Compound 40]
IC50 Promastigotes [1]: not active up to the highest concentration evaluated
IC50 ([1]; Leishmania amazonensis): > 10 µM

CCC1CCc2c(sc(/N=C/c3c[nH]c4ccc(Br)cc34)c2C#N)C1 (centres unmarked) [Compound 27]
IC50 ([1]; Leishmania amazonensis): > 10 µM
IC50 [2]: > 10 µM

N#Cc1c(N)sc2c1CCC2 [Compound 4]
IC50 ([1]; Leishmania amazonensis): > 10 µM
IC50 [2]: > 10 µM
